Results reported in paper doi:10.1101/2024.08.22.609123v2 (biorxiv, 2024).

Experiments:
GPX4 = biological target: T1, GPX4 (Homo sapiens, UniProt P36969); test: coupled glutathione reductase / NADPH assay, […] nm; type: biochemical
T1 sequence (P36969 28-197): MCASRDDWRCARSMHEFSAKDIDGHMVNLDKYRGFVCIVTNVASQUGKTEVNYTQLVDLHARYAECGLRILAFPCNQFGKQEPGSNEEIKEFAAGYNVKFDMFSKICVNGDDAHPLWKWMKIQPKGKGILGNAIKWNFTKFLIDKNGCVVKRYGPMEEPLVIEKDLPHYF

GPX4 (residues 28-197) = biological target: T2, GPX4 (residues 28-197) (Homo sapiens, UniProt P36969); test: SPR; type: binding
T2 sequence (P36969 28-197): T1 sequence (P36969 28-197)

Row | IC50 (GPX4) [µM] | Kd (GPX4 (residues 28-197)) [µM] | SMILES
1 | 4.17 | 1.83 | Cc1ccc(C(=O)O)cc1-c1ccc(/C=C2\SC(=O)N(Cc3ccc(F)cc3)C2=O)o1 [DP021]
2 | > 100 |  | COC(=O)c1ccc(C)c(-c2ccc(/C=C3\SC(=O)N(Cc4ccc(F)cc4)C3=O)o2)c1 [DP037]
